Results as given in US5821353A, “DNA encoding 1,3 beta-D glucan synthase subunits” (Merck & Co., Inc., priority 1996, dated 1998).
≈ marks a conversion by molar mass, not a printed value.

Tests used:
[1] = system: S. cerevisiae MY2144 (fks 1-3); assay: MIC, growth inhibition; type: cell-based, Saccharomyces cerevisiae; conditions: Saccharomyces cerevisiae, 24 h
Procedure: (§1) Liquid broth microdilution assay
(§2) To quantitate the sensitivity of a particular strain of S. cerevisiae to a compound such as FK506, L-733,560, or nikkomycin Z, the following procedure was followed:
(§3) Dissolve drug of interest at 4× the desired initial concentration. For L-733,560, a 64 mcg/ml solution in sterile SD is prepared. Aliquot 75 mcL of the drug suspension into column 3. Using a multichannel pipettor, transfer 75 mcL from column 3 into column 4, pipet up and down three times to mix, and then transfer 75 mcL from column 4 into column 5. Repeat the serial dilution until column 12 is reached; after mixing, discard 75 mcL to waste.
(§4) Inoculate each strain in a given row by adding 75 mcL of the inoculum into columns 2 to 12. […] Column 2 serves as the no-drug or 100% growth control. The plate is then incubated overnight at 30° C. without shaking.
(§5) After approximately 24 hours of incubation, gently agitate the plate to resuspend the cells and read the absorbance at 600 nm wavelength. The % control growth for any given well can be calculated by dividing the absorbance value for that well by the value from column 2 in the same row. If this is done for each column, the data can be plotted as "Percent control growth" vs. "Drug concentration". The resulting dose-response curve can be used to compare the drug sensitivities of various strains.
(§6) The data in the following table are the minimum concentration of the various drugs required to inhibit the growth of each the mutants and their parent X2180-1A.

S. cerevisiae MY2145 = assay: MIC, growth inhibition; type: cell-based, Saccharomyces cerevisiae; conditions: Saccharomyces cerevisiae, MY2145, 24 h; read-out: MIC
Procedure: as §1, §2, §3, §4, §5, §6

S. cerevisiae X2180-1A = assay: MIC, growth inhibition; type: cell-based, Saccharomyces cerevisiae; conditions: Saccharomyces cerevisiae, X21801A, 24 h, minimum concentration required to inhibit growth, read-out: MIC
Procedure: as §1, §2, §3, §4, §5, §6

[2] = system: S. cerevisiae MS14 mutant; assay: disc diffusion drug resistance/sensitivity test; type: cell-based, Saccharomyces cerevisiae
Procedure: Cells of the yeast strains MY2144 and MY2145 carrying the respective MS10 and MS14 mutations were grown overnight in YPAD and SC media. From the overnight cultures, cells were diluted 1:10 in the same media and allowed to further grow for 4-6 hrs. The drug resistance/sensitivity tests were conducted by the disc diffusion assay on plates containing 20 ml of solid YPAD or SC media and 3×10^6 cells. The cells were added to premelted media that was cooled to 50° C. before pouring onto plates. Sterile filter discs containing different drugs were placed on the surface of the plates followed by incubation at 28° C. for 1-2 days. Sizes of the zones of growth inhibition were measured as an indication of relative drug resistance/sensitivity. The MS14 mutant is supersensitive to the chitin synthesis inhibitor nikkomycin Z and resistant to the echinocandin L-733-560.

[3] = system: chitin synthase from MY2144 (fks 1-3); assay: chitin synthase assay, membrane preparation; type: biochemical, Saccharomyces cerevisiae; conditions: membranes of MY2144 (fks 1-3)
Procedure: (§7) 125 mcg of the above extracts were trypsin activated and mixed with an equal volume (50 mcL) chitin synthase reaction cocktail, which included 0.5M Tris, pH 7.5, 40 mM MgCl, 320 microM GlcNAc, ^14 C-UDP-GlcNAc substrate mix, and 0.8% digitonin. After 30 minutes of incubation at 30° C., the incorporated ^14 C-[…] was precipitated with 10% trichloroacetic acid, collected onto Whatman glass microfiber GF/A disks and counted.
(§8) Crude enzyme preparations associated with cell membranes were tested for glucan and chitin synthesis activities. The sensitivity of the mutant 1,3-beta-D glucan synthase to L-733,560 and papulacandin was tested along with the sensitivity of the chitin synthases to nikkomycin Z.
(§9) The chitin synthase is not affected in its sensitivity to nikkomycin Z. The data in the following table show the IC50 s for the glucan synthase inhibitors (L-733,560 and papulacandin) and the chitin synthase inhibitor (nikkomycin Z) in 1,3-beta-D glucan synthase and chitin synthase assays, respectively. Equal amounts of membrane proteins were used to prime each reaction.

[4] = system: chitin synthase from MY2145 (fks 1-4); assay: chitin synthase assay, membrane preparation; type: biochemical, Saccharomyces cerevisiae; conditions: membranes of MY2145 (fks 1-4)
Procedure: as §7, §8, §9

[5] = system: chitin synthase from X2180-1A; assay: chitin synthase assay, membrane preparation; type: biochemical, Saccharomyces cerevisiae; conditions: membranes of X2180-1A
Procedure: as §7, §8, §9

Structure (SMILES): C[C@@H]([C@H](N)C(=O)N[C@H](C(=O)O)[C@H]1O[C@@H](n2ccc(=O)[nH]c2=O)[C@H](O)[C@@H]1O)[C@H](O)c1ccc(O)cn1 [Nikkomycin Z, nikkomycin Z]
- MIC [1]: > 100 mg/L
- MIC (S. cerevisiae MY2145): 0.2 mg/L (≈ 0.404 µM)
- MIC (S. cerevisiae X2180-1A): > 100 mg/L
- drug resistance/sensitivity phenotype [2]: supersensitive
- IC50 [3]: 0.60 mg/L (≈ 1.21 µM)
- IC50 [4]: 0.64 mg/L (≈ 1.29 µM)
- IC50 [5]: 0.74 mg/L (≈ 1.49 µM)
